# Results as given in patent US11318140B2, “Use of TRPV4 antagonists to ameliorate hydrocephalus and related materials and methods” (Indiana University Research and Technology Corporation, priority 2012, dated 2022).
# Entries after “also recorded” stand apart in the source; their conditions may differ.
# What was measured:
# Assay type in all cases: in vivo, rat
# Wistar Wpk/Wpk rats [1] = experiment: Hydrocephalic cranial/head enlargement in Wpk/Wpk rats; conditions: day 8 through 17
# Experimental: (§1) Wistar Wpk/Wpk rats are an orthologous model of human type 3 Meckel Syndrome. Meckel Syndrome is a cilliopathology with both renal cystic and brain pathology. The brain pathology is severe hydrocephalus with hypoplasia of the corpus callosum.
# (§2) The inventors treated Wpk/Wpk affected as well as noncystic littermates with either TRPV4 agonist (GSK1016797, 0.003 mg/kg body weight) or antagonist (HC067047, 0.03 mg/kg) from day 8 through 17 and evaluated the cranial enlargement and cerebral manifestations. Both drugs were dissolved in DMSO prior to dilution with normal saline prior to injection (i.p.).
# (§3) Wpk/Wpk affected as well as noncystic littermates were treated with TRPV4 antagonist RN-1734 from day 8 through 17 and evaluated the kidney weight and cerebral manifestations (bitemporal head diameter and vertical head dimensions/cranial height). Both drugs were dissolved in DMSO prior to dilution with normal saline prior to injection (i.p.).
# Wistar Wpk/Wpk rats [2] = experiment: Renal pathology (kidney weight) in Wpk/Wpk rats; conditions: day 8 through 17
# Experimental: as §1, §2, §3
# [3] = tested on: Wpk/Wpk hydrocephalic rats; experiment: Cortical thickness from coronal sections of Wpk/Wpk hydrocephalic rats; conditions: 0.03 mg/kg body weight, day 8-17; measured at day 17; p<0.0001
# Description: as §1
# Cortical thickness measured from coronal sections of Wpk/Wpk hydrocephalic rats at day 17. […] This finding is in agreement with the decreased degree of hydrocephalus in the antagonist treated animals and, therefore, have a decreased loss in cerebral cortex.
# [4] = Example 3: i.p., dose not given
SMILES,activity and alertness of treated rats (Wistar Wpk/Wpk rats [1]; [4]),"head dimensions, treated affected rats versus normal littermates (Wistar Wpk/Wpk rats [1]; [4])","hydrocephalic enlargement of the cranium/brain (bitemporal head diameter, vertical head dimension) (Wistar Wpk/Wpk rats [1]; [4])",renal pathology (kidney weight) (Wistar Wpk/Wpk rats [2]; [4]),activity and alertness of treated rats (Wistar Wpk/Wpk rats [1]; 0.03 mg/kg i.p.),"head dimensions, treated affected rats versus normal littermates (Wistar Wpk/Wpk rats [1]; 0.03 mg/kg i.p.)","hydrocephalic enlargement of the cranium/brain (head measurements) (Wistar Wpk/Wpk rats [1]; 0.03 mg/kg i.p., affected Wpk/Wpk rats)",cortical thickness [3],"renal pathology (Wistar Wpk/Wpk rats [2]; Example 2: agonist 0.003 mg/kg, antagonist 0.03 mg/kg, i.p.)"
CC(C)NCCN(C(C)C)S(=O)(=O)c1ccc(Cl)cc1Cl [RN-1734],very active and alert like their nonaffected littermates,no difference in head dimensions,almost totally ameliorate,did not affect the renal pathology,,,,,
Cc1c(C(=O)Nc2cccc(C(F)(F)F)c2)cc(-c2ccccc2)n1CCCN1CCOCC1 [HC067047],,,,,very active and alert like their nonaffected littermates,no difference in head dimensions,almost totally ameliorate; also recorded: significantly less hydrocephalic head measurements,increased cortical thickness,did not affect the renal pathology
